Assay results reported in ChEMBL document CHEMBL1201862, “PubChem BioAssay data set” (2004).
Several values for one entry are separate records, joined by “and”; a condition that tells them apart may be missing. Equal entries are not always repeated. Activity calls are given as the source filed them.

Tests used:
[1] = test system: Streptococcus sp. 'group A'; test: growth inhibition of control SK(-) GAS strain, dose response, counter-screen for streptokinase expression inhibitor project, luminescence, kanamycin, BacTiterGlo, confirmation (AID 1900); type: functional, organism-based
[2] = target: T1, Streptokinase A (Streptococcus pyogenes serotype M1, UniProt P10520); test: S. pyogenes streptokinase expression inhibitors, potency, dose response, plasminogen activation absorbance, OD405 (AID 1914); type: functional, Streptococcus pyogenes M1 GAS;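 also: secreted streptokinase activity via plasminogen activation per viability signal from cell pellet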
T1 sequence (P10520 whole entry): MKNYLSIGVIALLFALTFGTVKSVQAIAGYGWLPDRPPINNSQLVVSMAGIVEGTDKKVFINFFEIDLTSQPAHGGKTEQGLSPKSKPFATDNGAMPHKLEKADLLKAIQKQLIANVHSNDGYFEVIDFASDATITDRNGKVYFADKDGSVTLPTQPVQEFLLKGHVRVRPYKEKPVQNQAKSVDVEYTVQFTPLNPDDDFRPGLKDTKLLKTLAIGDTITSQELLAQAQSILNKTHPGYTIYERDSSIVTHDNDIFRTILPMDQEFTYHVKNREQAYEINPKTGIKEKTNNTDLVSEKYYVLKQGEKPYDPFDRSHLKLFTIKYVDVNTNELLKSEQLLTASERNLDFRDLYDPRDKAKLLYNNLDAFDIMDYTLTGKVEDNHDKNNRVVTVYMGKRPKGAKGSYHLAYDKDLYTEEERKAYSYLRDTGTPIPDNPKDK

[3] = test system: Streptococcus; test: Group A Streptococcus viability loss, dose response, counter-screen for streptokinase expression inhibitor project, luminescence, BacTiterGlo (AID 1915); type: functional, organism-based;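 also: potency for reduction of bacterial viability or growth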
[4] = target: Cytochrome P450 3A4 (Homo sapiens, UniProt P08684);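 also: CYP3A4 tested as one member of a cytochrome P450 panel screen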
Cytochrome P450 3A4, sequence (P08684 whole entry): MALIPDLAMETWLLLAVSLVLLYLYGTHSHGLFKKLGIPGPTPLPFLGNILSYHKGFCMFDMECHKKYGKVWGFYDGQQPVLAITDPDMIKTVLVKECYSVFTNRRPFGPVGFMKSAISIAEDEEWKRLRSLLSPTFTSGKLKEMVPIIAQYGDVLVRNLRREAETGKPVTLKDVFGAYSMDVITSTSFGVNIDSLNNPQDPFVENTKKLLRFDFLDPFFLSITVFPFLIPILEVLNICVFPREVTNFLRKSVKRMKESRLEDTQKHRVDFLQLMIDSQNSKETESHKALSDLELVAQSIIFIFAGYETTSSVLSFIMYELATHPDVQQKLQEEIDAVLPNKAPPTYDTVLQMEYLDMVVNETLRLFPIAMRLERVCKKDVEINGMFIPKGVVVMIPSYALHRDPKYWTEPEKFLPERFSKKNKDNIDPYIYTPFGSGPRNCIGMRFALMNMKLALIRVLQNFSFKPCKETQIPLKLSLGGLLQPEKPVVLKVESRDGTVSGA

[5] = target: Cytochrome P450 2C19 (Homo sapiens, UniProt P33261); test: Cytochrome panel assay with activity outcomes. Panel member name: p450-cyp2c19 Compounds with AC50 equal or less than 10 uM are considered active; type: functional; settings: read-out: AC50
Cytochrome P450 2C19, sequence (P33261 whole entry): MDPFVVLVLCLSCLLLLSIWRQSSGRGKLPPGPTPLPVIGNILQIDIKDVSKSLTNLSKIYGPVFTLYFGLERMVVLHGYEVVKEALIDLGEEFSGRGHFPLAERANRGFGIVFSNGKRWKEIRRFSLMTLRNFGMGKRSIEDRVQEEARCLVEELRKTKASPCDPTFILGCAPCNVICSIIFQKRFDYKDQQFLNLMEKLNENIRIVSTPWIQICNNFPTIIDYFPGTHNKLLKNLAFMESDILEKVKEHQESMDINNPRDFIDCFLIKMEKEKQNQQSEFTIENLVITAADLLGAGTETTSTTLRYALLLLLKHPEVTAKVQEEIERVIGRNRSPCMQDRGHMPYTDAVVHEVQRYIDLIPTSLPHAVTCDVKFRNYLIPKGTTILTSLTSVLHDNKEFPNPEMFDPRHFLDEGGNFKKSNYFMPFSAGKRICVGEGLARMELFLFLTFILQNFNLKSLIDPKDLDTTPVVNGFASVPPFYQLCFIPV

[6] = inhibitors of intracellular T. cruzi replication, confirmation, NIH3T3 host cells, beta-gal luminescence (AID 2044); type: functional, cell-based;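 also: intracellular parasites grown in NIH/3T3 mouse fibroblasts as host cells; luminescent beta-galactosidase reporter signal from transgenic T. cruzi replicating inside host cells; inhibitors lower the luminescence signal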
[7] = cytotoxicity toward NIH3T3 fibroblasts, dose response, counter-screen, cell-based, ATP luminescence, mouse fibroblasts (AID 2010); type: functional;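 also: cells exposed to compound for about 90 hours before reading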
[8] = target: Cytochrome P450 2C9 (Homo sapiens, UniProt P11712)
Cytochrome P450 2C9, sequence (P11712 whole entry): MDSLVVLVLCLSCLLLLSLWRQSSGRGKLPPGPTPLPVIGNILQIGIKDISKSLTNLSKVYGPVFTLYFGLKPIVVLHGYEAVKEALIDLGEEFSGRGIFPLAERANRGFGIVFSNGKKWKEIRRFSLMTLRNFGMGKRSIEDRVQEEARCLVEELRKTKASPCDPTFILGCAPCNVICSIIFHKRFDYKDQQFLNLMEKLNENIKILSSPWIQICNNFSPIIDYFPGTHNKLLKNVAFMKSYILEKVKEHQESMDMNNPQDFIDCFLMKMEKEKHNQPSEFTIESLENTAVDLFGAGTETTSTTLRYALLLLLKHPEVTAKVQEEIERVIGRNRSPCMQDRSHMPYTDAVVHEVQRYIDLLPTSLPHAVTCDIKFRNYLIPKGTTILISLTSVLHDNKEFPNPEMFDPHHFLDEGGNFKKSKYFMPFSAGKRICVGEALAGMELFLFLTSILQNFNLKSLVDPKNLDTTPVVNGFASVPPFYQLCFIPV

SMILES: CCC1(C)Cc2c(sc3nc(SC)nc(S)c23)CO1 (stereo not given)
- EC50 [1]: 1.84 µM (active)
- EC50 [2]: > 150 µM (not active)
- EC50 [3]: > 150 µM (not active)

SMILES: COc1ccc([C@@H](Nc2ccccn2)c2cc(C(C)(C)C)cc(C(C)(C)C)c2O)cc1
- AC50 [4]: 2 µM (inconclusive)

SMILES: CCOc1ccc(C(=O)NC(=S)Nc2ccc(NC(=O)CC)cc2)cc1[N+](=O)[O-]
- EC50 [1]: 4.28 µM (active)
- EC50 [2]: > 150 µM (not active)
- EC50 [3]: 64.4 µM (active)

SMILES: NC[C@H](O)c1cc(O)c(O)cc1F
- AC50 [4]: 31.6 µM (inconclusive)

SMILES: C/C(=N/O)c1ccc2cc(Br)c3ccccc3c2c1
- AC50 [5]: 1 µM (inconclusive)

SMILES: COc1ccc(-c2csc3ncnc(N4CCN(S(=O)(=O)c5cccc(Br)c5)CC4)c23)cc1
- EC50 [6]: 1.71 µM (active)
- EC50 [7]: > 60 µM (not active)

SMILES: Cc1cccc(N(CC(=O)NCCSCc2ccco2)S(=O)(=O)c2ccccc2)c1
- AC50 [4]: 3.55 µM (inconclusive)

SMILES: CCOC(=O)c1cc2c(=O)n3ccccc3nc2n(CCCOC)/c1=N\C(C)=O
- AC50 [8]: 20 µM (inconclusive)

SMILES: Nc1nc(-c2cccs2)cs1
- AC50 [5]: 3.98 µM (inconclusive) and 39.8 µM (inconclusive)
- AC50 [4]: 3.98 µM (inconclusive) and 25.1 µM (inconclusive)

SMILES: CCn1c(SCC(=O)NC2CCCc3ccccc32)nnc1-c1cccs1 (stereo not given)
- AC50 [8]: 4.47 µM (inconclusive)

SMILES: CN(C)CCn1c(=O)n(Cc2ccco2)c(=O)c2c3c(sc21)CCCCC3
- EC50 [6]: 0.196 µM (active)
- EC50 [7]: > 60 µM (not active)
- AC50 [4]: 12.6 µM (inconclusive)

SMILES: COc1ccc(CCn2c(-c3cc([N+](=O)[O-])cc([N+](=O)[O-])c3)nc3nc4ccccc4nc32)cc1
- EC50 [6]: 0.157 µM (active)
- EC50 [7]: > 60 µM (not active)

SMILES: O=C(Nc1cccc(-c2cnc3ccccc3n2)c1)c1ccc(Cl)cc1
- AC50 [4]: 3.55 µM (inconclusive)
- AC50 [8]: 1.78 µM (inconclusive)

SMILES: CC(C)(C)CC(=O)NC(=S)Nc1ccccc1C(F)(F)F
- AC50 [4]: 22.4 µM (inconclusive)

SMILES: COc1cccc(C2c3c(C)nn(-c4ccc([N+](=O)[O-])cc4)c3N=C3C(=O)Nc4ccccc4N32)c1 (stereo not given)
- EC50 [6]: 1.87 µM (active)
- EC50 [7]: > 60 µM (not active)

SMILES: C[C@@H](C(=O)NC1CCN(Cc2ccccc2)CC1)N1C(=O)N2CCc3c([nH]c4ccccc34)[C@@]2(C)C1=O
- EC50 [6]: 0.299 µM (active)
- EC50 [7]: > 60 µM (not active)

SMILES: CC(NC(=O)C1(C)CC1(Br)Br)C(C)(C)C (stereo not given)
- AC50 [4]: 14.1 µM (inconclusive)

SMILES: CCOC(=O)C1=C(c2ccccc2)Nc2ncnn2C1c1ccc(OC)c(OC)c1OC (stereo not given)
- EC50 [6]: 1.84 µM (active)
- EC50 [7]: > 60 µM (not active)

SMILES: Cc1ccccc1/C=N\NC(=O)c1csnn1
- AC50 [5]: 11.2 µM (inconclusive)

SMILES: O=C(Nc1nc(-c2ccccc2)cs1)C1CCCN(S(=O)(=O)c2cccc([N+](=O)[O-])c2)C1 (stereo not given)
- EC50 [6]: 0.173 µM (active)
- EC50 [7]: > 60 µM (not active)

SMILES: Cc1nc2ncnn2c(C)c1CCC(=O)Nc1ccc(S(=O)(=O)N2CCCCCC2)cc1
- AC50 [4]: 39.8 µM (inconclusive)

SMILES: CCOc1ccc(CNC(=O)C2CC(=O)N(C3CCCC3)C2)cc1OC (stereo not given)
- AC50 [5]: 39.8 µM (inconclusive)
- AC50 [4]: 25.1 µM (inconclusive)

SMILES: COc1ccc(-c2nnc3n2N=C(C)CS3)cc1
- AC50 [5]: 25.1 µM (inconclusive)
- AC50 [8]: 20 µM (inconclusive)

SMILES: c1ccc(CCn2nnnc2C(c2cccnc2)N2CCN(c3nc4ccccc4s3)CC2)cc1 (stereo not given)
- EC50 [6]: 0.244 µM (active)
- EC50 [7]: 31.2 µM (active)

SMILES: Oc1c(N=NC(S)=Nc2ccccc2F)c2ccccc2n1Cc1ccc(Cl)cc1
- EC50 [6]: 1.06 µM (active)
- EC50 [7]: 5.85 µM (active)

SMILES: CC12CS(=O)(=O)CC1SC(=S)N2c1ccccn1 (stereo not given)
- AC50 [4]: 17.8 µM (inconclusive)

SMILES: COc1ccccc1-c1nc(NCc2cccs2)c2ccccc2n1
- AC50 [5]: 20 µM (inconclusive)
